Laboratory results as given in US8242085B2, “Tetrahydrofuro [3,4-D] dioxolane compounds for use in the treatment of viral infections and cancer” (BioCryst Pharmaceuticals, Inc., priority 2007, dated 2012).

Assay: in vivo test of prodrug hydrolysis to active compound
Conditions: tested in vivo

C[C@@]12OC(c3ccc(Cl)cc3)O[C@@H]1[C@@H](CO)O[C@H]2c1coc2c(N)ncnc12 (stereo partly drawn) [Example 1, ((3aR,4R,6S,6aS)-6-(4-Aminofuro[3,2-d]pyrimidin-7-yl)-2-(4-chlorophenyl)-6a-methyltetrahydrofuro[3,4-d][1,3]dioxol-4-yl)methanol]
hydrolysis of prodrug in vivo: hydrolyzes in vivo to provide an active compound
